Patent US20240150293A1, “SPIROCYCLOHEXANE DERIVATIVES, PHARMACEUTICAL COMPOSITIONS CONTAINING THEM AND THEIR USES AS ANTI-APOPTOTIC INHIBITORS” (LES LABORATOIRES SERVIER, priority 2021, published 2024)
Like-named read-outs stand apart in the source and are kept apart here.

Tests used:
[1] = target: Cy5-labelled Mcl1 (amino acids 171-321) C286S protein (UniProtKB Q07820) (Homo sapiens (Human), UniProt Q07820, C286S); assay: Inhibition of Mcl-1 by the fluorescence quenching assay (Example A, Method B); format: binding
Summary of the method: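 Eleven-point compound series incubated 2 h at room temperature with 1 nM Cy5-tagged protein and quencher-labelled PUMA peptide at 10, 20 or 400 nM in HEPES/NaCl/Tween 20, pH 7.4, 5% DMSO. IC50 for 50% fluorescence increase by 4-parameter fit, then Ki derived (complete cKi or estimated eKi).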

[2] = system: H929 multiple myeloma tumor line; assay: In vitro cytotoxicity, MTT assay (Example B, Method A); format: cell-based; conditions: H929 cells, 48 hours exposure, read-out: C50
Description: The cytotoxicity studies were carried out on the H929 multiple myeloma tumor line.
The cells are distributed onto microplates and exposed to the test compounds for 48 hours. The cell viability is then quantified by a colorimetric assay, the Microculture Tetrazolium Assay (Carmichael et al, Cancer Res. 1987, 47, 939-942).
The results are expressed in C50 which means concentration corresponding to […] of effect/inhibition.

Cy5-labelled Mcl1 (amino acids 171-321) C286S protein, sequence (Q07820 171-321 C286S): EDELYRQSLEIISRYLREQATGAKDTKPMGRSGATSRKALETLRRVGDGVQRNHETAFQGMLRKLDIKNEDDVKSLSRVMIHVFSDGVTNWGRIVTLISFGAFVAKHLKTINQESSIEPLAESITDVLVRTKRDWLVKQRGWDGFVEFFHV

| SMILES | Ki [1] [nM] | IC50 ([2]; Homo sapiens, NCI-H929, 48 h) [nM] | IC50 [2] [nM] | Ki ([1]; Ki determined from IC50) [nM] |
| --- | --- | --- | --- | --- |
| Cc1cncc(C)c1OC[C@H](C)C[C@H]1Cc2ccccc2[C@]12CC[C@@](Nc1cccc(Cl)c1)(C(=O)O)CC2 [Example 584, (1r,2′S,4S)-4-(3-chloroanilino)-2′-{(2R)-3-[(3,5-dimethylpyridin-4-yl)oxy]-2-methylpropyl}-2′,3′-dihydrospiro[cyclohexane-1,1′-indene]-4-carboxylic acid] | 7.03 | 1760 | – | – |
| C[C@@H](COc1ccnc2ccsc12)C[C@H]1Cc2ccc(F)cc2[C@]12CC[C@@](Nc1cccc(Cl)c1)(C(=O)O)CC2 [Example 735, (1r,2′S,4S)-4-(3-chloroanilino)-6′-fluoro-2′-{(2R)-2-methyl-3-[(thieno[3,2-b]pyridin-7-yl)oxy]propyl}-2′,3′-dihydrospiro[cyclohexane-1,1′-indene]-4-carboxylic acid] | 2.55 | 433 | – | – |
| C[C@@H](COc1ccnc2c1[C@H](C)CCC2)CC1=Cc2c(Cl)c(F)ccc2[C@]12CC[C@@](Nc1cccc(Cl)c1)(C(=O)O)CC2 [Example 745, (1r,4R)-4′-chloro-4-(3-chloroanilino)-5′-fluoro-2′-[(2R)-2-methyl-3-{[(5R)-5-methyl-5,6,7,8-tetrahydroquinolin-4-yl]oxy}propyl]spiro[cyclohexane-1,1′-indene]-4-carboxylic acid] | 1.58 | 66.4 | – | – |
| Cc1cc(OC[C@H](C)C[C@H]2Cc3ccccc3[C@]23CC[C@@](Nc2cccc(Cl)c2)(C(=O)O)CC3)c2c(n1)CCCC2C (single isomer, unassigned) [Example 663] | 23.1 | – | 3430 | – |
| C[C@@H]1Cc2nccc(OC[C@H](C)C[C@H]3Cc4ccccc4[C@]34CC[C@@](Nc3cccc(Cl)c3)(C(=O)O)CC4)c2[C@H](C)C1 [Example 665, (1r,2′S,4S)-4-(3-chloroanilino)-2′-[(2R)-3-{[(5R,7S)-5,7-dimethyl-5,6,7,8-tetrahydroquinolin-4-yl]oxy}-2-methylpropyl]-2′,3′-dihydrospiro[cyclohexane-1,1′-indene]-4-carboxylic acid] | 3.01 | 276 | – | – |
| COc1ccc2c(c1)[C@]1(CC[C@@](Nc3cccc(Cl)c3)(C(=O)O)CC1)[C@@H](C[C@@H](C)COc1ccnc3c1[C@@H](C)CCC3)C2 [Example 783, (1r,2′S,4S)-4-(3-chloroanilino)-6′-methoxy-2′-[(2R)-2-methyl-3-{[(5S)-5-methyl-5,6,7,8-tetrahydroquinolin-4-yl]oxy}propyl]-2′,3′-dihydrospiro[cyclohexane-1,1′-indene]-4-carboxylic acid] | 10.3 | 430 | – | – |
| CC(=O)c1cc(C)c2c(c1)[C@]1(CC[C@@](Nc3cccc(Cl)c3)(C(=O)O)CC1)C(C[C@@H](C)COc1ccnc3c1[C@H](C)CCC3)=C2 [Example 756, (1r,4R)-6′-acetyl-4-(3-chloroanilino)-4′-methyl-2′-[(2R)-2-methyl-3-{[(5R)-5-methyl-5,6,7,8-tetrahydroquinolin-4-yl]oxy}propyl]spiro[cyclohexane-1,1′-indene]-4-carboxylic acid] | 1.01 | 62 | – | – |
| CC1CC(O)c2nccc(OC[C@H](C)C[C@H]3Cc4ccccc4[C@]34CC[C@@](Nc3cccc(Cl)c3)(C(=O)O)CC4)c21 (stereo partly drawn) [Example 610, (1r,2′S,4S)-4-(3-chloroanilino)-2′-{(2R)-3-[(7-hydroxy-5-methyl-6,7-dihydro-5H-cyclopenta[b]pyridin-4-yl)oxy]-2-methylpropyl}-2′,3′-dihydrospiro[cyclohexane-1,1′-indene]-4-carboxylic acid] | 0.767 | 423 | – | – |
| C[C@@H](COc1ccnc2c1CCC2)C[C@@H]1Cc2ccccc2[C@]12CC[C@@](Nc1cccc(Cl)c1)(C(=O)O)CC2 [Example 598, (1r,2′R,4R)-4-(3-chloroanilino)-2′-{(2R)-3-[(6,7-dihydro-5H-cyclopenta[b]pyridin-4-yl)oxy]-2-methylpropyl}-2′,3′-dihydrospiro[cyclohexane-1,1′-indene]-4-carboxylic acid] | 4.29 | 590 | – | – |
| C[C@@H](COc1ccnc2c1[C@H]1CCC[C@H]1C2)C[C@H]1Cc2ccccc2[C@]12CC[C@@](Nc1cccc(Cl)c1)(C(=O)O)CC2 (single isomer, unassigned) [Example 620, (1r,2′S,4S)-4-(3-chloroanilino)-2′-[(2R)-3-{[(4bR*,7aR*)-4b,5,6,7,7a,8-hexahydropentaleno[2,1-b]pyridin-4-yl]oxy}-2-methylpropyl]-2′,3′-dihydrospiro[cyclohexane-1,1′-indene]-4-carboxylic acid] | 12.7 | – | 889 | – |
| O=C(O)[C@]1(Nc2cccc(Cl)c2)CC[C@@]2(CC1)c1ccccc1CC2CC(COc1ccnc2ccsc12)Cc1ccccc1 (single isomer, unassigned) [Example 563, (1r,4r)-2′-{2-benzyl-3-[(thieno[3,2-b]pyridin-7-yl)oxy]propyl}-4-(3-chloroanilino)-2′,3′-dihydrospiro[cyclohexane-1,1′-indene]-4-carboxylic acid] | 43.5 | – | 3950 | – |
| C[C@@H](COc1ccnc2c1[C@H](C)CCC2)CC1Cc2c(F)cccc2[C@]12CC[C@@](Nc1cccc(Cl)c1)(C(=O)O)CC2 (single isomer, unassigned) [Example 743] | 0.463 | – | 110 | – |
| C[C@@H](COc1ccnc2c1[C@@H](CC(F)(F)F)CCC2)C[C@H]1Cc2ccccc2[C@]12CC[C@@](Nc1cccc(Cl)c1)(C(=O)O)CC2 [Example 694, (1r,2′S,4S)-4-(3-chloroanilino)-2′-[(2R)-2-methyl-3-{[(5R)-5-(2,2,2-trifluoroethyl)-5,6,7,8-tetrahydroquinolin-4-yl]oxy}propyl]-2′,3′-dihydrospiro[cyclohexane-1,1′-indene]-4-carboxylic acid] | 100 | 6290 | – | – |
| C[C@@H](COc1ccnc2c1[C@H](C)CCC2)CC1=Cc2cc(F)ccc2[C@]12CC[C@@](Nc1cccc(Cl)c1)(C(=O)O)CC2 [Example 767, (1r,4R)-4-(3-chloroanilino)-5′-fluoro-2′-[(2R)-2-methyl-3-{[(5R)-5-methyl-5,6,7,8-tetrahydroquinolin-4-yl]oxy}propyl]spiro[cyclohexane-1,1′-indene]-4-carboxylic acid] | 0.305 | 78.8 | – | – |
| C[C@H]1Cc2c(OC[C@H](C)C[C@H]3Cc4ccccc4[C@]34CC[C@@](Nc3cccc(Cl)c3)(C(=O)O)CC4)ccnc2[C@H](O)C1 (racemic) [Example 670, (1r,2′S,4S)-4-(3-chloroanilino)-2′-[(2R)-3-{[(6RS,8SR)-8-hydroxy-6-methyl-5,6,7,8-tetrahydroquinolin-4-yl]oxy}-2-methylpropyl]-2′,3′-dihydrospiro[cyclohexane-1,1′-indene]-4-carboxylic acid] | 41.6 | 3600 | – | – |
| C[C@@H](COc1ccnc2c1[C@@H](C)CCC2)C[C@H]1Cc2ccc(O)cc2[C@]12CC[C@@](Nc1cccc(Cl)c1)(C(=O)O)CC2 [Example 780, (1r,2′S,4S)-4-(3-chloroanilino)-6′-hydroxy-2′-[(2R)-2-methyl-3-{[(5S)-5-methyl-5,6,7,8-tetrahydroquinolin-4-yl]oxy}propyl]-2′,3′-dihydrospiro[cyclohexane-1,1′-indene]-4-carboxylic acid] | 8.89 | 641 | – | – |
| C[C@@H](COc1ccnc2c1[C@H](CC(F)(F)F)CCC2)C[C@H]1Cc2ccccc2[C@]12CC[C@@](Nc1cccc(Cl)c1)(C(=O)O)CC2 [Example 695, (1r,2′S,4S)-4-(3-chloroanilino)-2′-[(2R)-2-methyl-3-{[(5S)-5-(2,2,2-trifluoroethyl)-5,6,7,8-tetrahydroquinolin-4-yl]oxy}propyl]-2′,3′-dihydrospiro[cyclohexane-1,1′-indene]-4-carboxylic acid] | 29.6 | 3240 | – | – |
| O=C(O)[C@]1(Nc2cccc(Cl)c2)CC[C@]2(CC1)C(Br)=Cc1ccccc12 [Example 75, (1s,4s)-2′-bromo-4-(3-chloroanilino)spiro[cyclohexane-1,1′-indene]-4-carboxylic acid] | – | 30000 | – | 119 |
| C[C@@H](COc1ccnc2c1[C@H](C)CC[C@H]2O)C[C@H]1Cc2cc(F)ccc2[C@]12CC[C@@](Nc1cccc(Cl)c1)(C(=O)O)CC2 [Example 771, (1r,2′S,4S)-4-(3-chloroanilino)-5′-fluoro-2′-[(2R)-3-{[(5R,8R)-8-hydroxy-5-methyl-5,6,7,8-tetrahydroquinolin-4-yl]oxy}-2-methylpropyl]-2′,3′-dihydrospiro[cyclohexane-1,1′-indene]-4-carboxylic acid] | 0.176 | 18.3 | – | – |
| CC(O)c1ccc2c(c1)[C@]1(CC[C@@](Nc3cccc(Cl)c3)(C(=O)O)CC1)C(C[C@@H](C)COc1ccnc3c1[C@H](C)CCC3)=C2 (stereo partly drawn) [Example 857, (1r,4R)-4-(3-chloroanilino)-6′-(1-hydroxyethyl)-2′-[(2R)-2-methyl-3-{[(5R)-5-methyl-5,6,7,8-tetrahydroquinolin-4-yl]oxy}propyl]spiro[cyclohexane-1,1′-indene]-4-carboxylic acid] | 0.169 | 143 | – | – |
| O=C(O)[C@]1(Nc2cccc(Cl)c2)CC[C@@]2(CC1)c1ccccc1CN2CCCOc1ccnc2ccsc12 [Example 36, (1s,4s)-4-(3-chloroanilino)-2′-{3-[(thieno[3,2-b]pyridin-7-yl)oxy]propyl}-2′,3′-dihydrospiro[cyclohexane-1,1′-isoindole]-4-carboxylic acid] | – | 18500 | – | 749 |
